In test [1] the test system is control T lymphocytes (patients suffering from hemochromatosis). The test is described as follows: Cell survival of control T lymphocytes, annexin/propidium iodide flow cytometry. It counts as cell-based, human. The procedure:
(§1) FIG. 7: Activity of the A1WT peptide on cells of lymphocytic, lymphoid, gastric, colonic or renal origin The cells are prepared and placed in culture (see Materials and Methods) and then incubated for 4 H with the A1WT or A1 YALA peptide. The percentage cell survival corresponds to the percentage of cells labeled neither with annexin nor with propidium iodide, evaluated by flow cytometry. The names of the pathological conditions from which the patients from whom the samples are taken are suffering are indicated under the figure. The control T (L.T.) and B (L.B.) lymphocytes are taken from patients suffering from a disease not related to a lymphocytic pathological condition (hemochromatosis).
The control B lymphocytes and T lymphocytes originate from peripheral blood samples from patients suffering from hemochromatosis, provided by the CTS transfusion center in Brest. The B and T lymphocytes were isolated using the Rosett-Sep kit (Stemcell Technologies) according to the supplier's recommendations.
(§2) The cells were cultured in a culture medium composed either of RPMI 1640 (B lymphocytes) or of DMEM (COS7, HCT116, HGT1, 293, HeLa) containing 10% of FCS (fetal calf serum, 1% of penicillin-streptomycin and 1% of glutamine, Gibco BRL). The cells are distributed in a 24-well plate and cultured at 37° C. in a humid atmosphere under 5% CO2.
(§3) 400 μl of cell suspension (1×10^6 cells/ml) per well were treated for 4 h or 24 h with various concentrations of peptides. The test for activity of the peptides in the presence of emetine (FIG. 6) was carried out by preincubating the cells with 100 μM of emetine for one hour before the addition of peptide.
(§4) After the cells have been washed with PBS, they were analyzed using the Annexin V-FITC IP system according to the supplier's recommendations (Beckman Coulter).
Background: Flow cytometry measures light scatter and fluorescence of single cells or particles in a stream.

For test [2], the system named is cells derived from a simian kidney cancer (COS7). It is filed as cell-based. To be noted: 4 h, 40 μM. As for the experimental part:
as §1, §2, §3, §4

Test [3] has as its system cells derived from a human colon cancer (HCT116). It counts as cell-based. To be noted: 4 h, 40 μM. As for the experimental part: as §1, §2, §3, §4
Test [4] has as its system HGT1 cell line derived from a gastric cancer. It counts as cell-based. As to conditions: 4 h, 40 μM. The procedure: as §1, §2, §3, §4
For test [5], the system named is Jok cells (cell line derived from B lymphocytes). The test is described as follows: Cell survival of Jok cells, annexin/propidium iodide flow cytometry. It counts as cell-based, human. As for the experimental part:
The cells are treated as indicated for FIG. 7, with the CLL cells, control T lymphocytes and Jok lymphocytes, which are incubated with the A1 WT IRS peptide and derivatives thereof described in table 1. The Jok cells were incubated either with 20 μM (JOK 20) or with 40 μM (JOK 40) of each of the peptides. In the interests of simplifying the legend, the A1 WT IRS peptide is referred to as “WT”. Likewise, the derivatives thereof are referred to by the name of the mutations (A1 K3I IRS is referred to as “K3I”, for example).
as §2, §3, §4
The peptides were tested on B lymphocytes from patients suffering from chronic lymphoid leukemia, control T lymphocytes, or Jok cells (cell line derived from B lymphocytes). The experiment was repeated three times for each type of cell tested.

The subject of test [6] is control T lymphocytes (patients suffering from hemochromatosis). Kind of test: Cell survival of control T lymphocytes, annexin/propidium iodide flow cytometry. To be noted: 40 μM, 4 hours; FIG. 9. It is filed as cell-based, human.
Test [7] deals with 293 cells (human embryo kidney cells transformed with adenovirus 5). The test is described as follows: Cell survival of 293 cells, Syto 13/propidium iodide fluorescence microscopy. As to conditions: one hour incubation, various concentrations; FIG. 10. It is filed as cell-based. The procedure: (§5) The cells cultured in glass-bottomed multiwell plates are incubated for one hour with the A1WT or A1 YALA peptide at the concentrations indicated on the figure. The percentage cell survival is obtained by calculating the ratio between the cells stained with Syto 13 and those stained with propidium iodide (see Materials and Methods).
(§6) The analyses were carried out on a Zeiss Observer Z1 epifluorescence microscope. The cells are cultured in a glass-bottomed multiwell plate, propidium iodide and Syto13 (Invitrogen) are added to the medium at a concentration of 1 mg/ml and 5 μM, respectively. The Syto 13 binds to the DNA in the nuclei of the cells which then emit a green fluorescence. When the membrane permeability is modified during the cell death process, the propidium iodide penetrates the cell and causes the appearance of a red fluorescence when it binds to the DNA of the cell nuclei. The ratio between the number of nuclei emitting a green fluorescence and the number of nuclei emitting a red fluorescence represents the fraction of live cells expressed as percentage cell survival in the figures.

Test [8] relates to HeLa cells (cervical cancer). The test is described as follows: Cell survival of HeLa cells, Syto 13/propidium iodide fluorescence microscopy. It is filed as cell-based. To be noted: one hour incubation, various concentrations; FIG. 10. As for the experimental part:
as §5, §6

[9] abbreviates: 40 μM peptide, 4 hours of culture, cells not labeled with annexin or propidium iodide.

No end group written: not given here.

For “RRKYGRDFLLRFRYIRS [A1 WT IRS, RRKYGRDFLLRFRYIRS]”, in test [1] (setting [9]), the “cell effect LT 40 (survival)” value is “+ (+: survival <25%)”. The survival rate in test [1] (after 4 H of incubation with 40 μM, FIG. 7) is 38%. Further, the values for the cell survival in test [2], in test [3] and in test [4] were 90%, 94% and “more than 88%”, respectively. Moreover, the “cell effect Jok 20 (survival)” value in test [5] (20 μM peptide, 4 hours of culture, cells not labeled with annexin or propidium iodide) was “+ (+: survival <25%)”. Also, the “cell effect Jok 40 (survival)” value in test [5] (setting [9]) was “+ (+: survival <25%)”. Further, the “effect of the peptide on cell mortality, in words (relative to A1 WT IRS)” value in test [5] (40 μM, 4 hours, FIG. 9) was “high cell mortality”; in test [6], “the survival rate is higher in the control T cells”. Besides, the figures for the “effect on cell survival” value in test [7] and in test [8] were “dose-dependent effect” and “high sensitivity”, respectively.

(Values after patent US9745357B2, “Peptides used for treating cancers and, in particular, chronic lymphoid leukaemia” (Centre National de la Recherche Scientifique, priority 2009, dated 2017).)
